{
  "source": "patent US11648223B2",
  "about": "“Receptor subtype and function selective retinoid and rexinoid compounds in combination with immune modulators for cancer immunotherapy” (Io Therapeutics, Inc., priority 2016, dated 2023)",
  "key": {"[1]": {"tested_on": "Th17 cell", "experiment": "in vitro Th17 cell differentiation from naive T cells", "type": "cell-based, mouse", "conditions": "in vitro assay", "experimental": "(§1) To determine whether a RARα selective agonist could affect T cell differentiation, T cells were incubated with a RARα selective agonist to determine its effect on Foxp3 expression. Naive CD4^+ […] cells were purified from a Foxp3-GFP mouse using flow cytometry by sorting and isolating based upon a GFP^+ phenotype. These cells were activated polyclonally with αCD3 in vitro in the presence of IL-2 and TGF-β. These cells were then cultured in media with various concentrations of compound 5183 (a RARα selective agonist) and the expression of FoxP3-GFP was analyzed by flow cytometry. The RARα selective agonist compound 5183 enhanced differentiation of immunosuppressive Treg cells and inhibited differentiation of inflammatory TH17 cells from naëve T cells in vitro (Table 2)."}, "[2]": {"tested_on": "CD4+ T cells", "experiment": "in vivo T cell differentiation in mice (FoxP3 expression in CD4+ T cells of blood and spleen)", "design": "species or system mouse", "conditions": "in vivo assay", "experimental": "To expand on the finding above, the in vivo effects of a RARα selective agonist on T cell differentiation was evaluated in a mouse model. Mice were treated with 100 μg of compound 5183 (a RARα agonist) or an equivalent volume of DMSO (vehicle control) every other day for 10 days. Lympocytes from the blood and spleen were then isolated and FoxP3 expression in CD4^+ T cells was assessed."}, "[3]": {"tested_on": "Treg cell", "experiment": "in vitro Treg cell differentiation from naive CD4+ T cells (FoxP3-GFP, flow cytometry)", "type": "cell-based, mouse", "conditions": "in vitro assay", "experimental": "as §1"}, "[4]": {"tested_on": "B16F10 tumor cells", "experiment": "B16F10 melanoma engrafted C57BL/6 mice, survival", "type": "in vivo", "experimental": "The anti-tumor effects of anti-CTLA-4 antibody treatment combined with 10 nM […] agonist (AGN204647 (IRX4647)) are examined in C57BL/6 mice engrafted with B16F10 tumor cells."}, "[5]": {"tested_on": "FoxP3+ Treg cells", "experiment": "formation of FoxP3+ Treg cells (FIG. 3)", "type": "cell-based"}, "[6]": {"tested_on": "Th 17 cells", "experiment": "formation of Th17 cells (FIG. 3)", "type": "cell-based"}, "[7]": {"conditions": "combination with anti-CTLA-4 antibody"}},
  "data": [
    {"smiles": "CCOc1c(Br)cc(C(=O)Nc2ccc(C(=O)O)cc2)cc1C(=O)c1ccc(C)cc1", "note": "[AGN196996]", "values": [
      {"measurement": "Th17 cell numbers", "setting": "[1]", "value": "increases Th17 cell numbers"},
      {"measurement": "Th17 cell numbers", "setting": "[2]", "value": "increases Th17 cell numbers"},
      {"measurement": "Treg cell numbers", "setting": "[2]", "value": "decreases Treg cell numbers"},
      {"measurement": "Treg cell numbers", "setting": "[3]", "value": "decreases Treg cell numbers"}
    ]},
    {"smiles": "CC1(C)CCC(C)(C)c2cc(C(/C=C/c3cccc(C(=O)O)c3)=N/O)ccc21", "note": "[AGN204647]", "values": [
      {"measurement": "survival rate at 50 days", "setting": "[4]; agent alone, vehicles only 0%", "value": 30, "unit": "%"},
      {"measurement": "survival at 50 days", "setting": "[4]; combination of anti-CTLA-4 antibody and 10 nM RARγ agonist AGN204647", "value": 100, "unit": "%"},
      {"measurement": "resistance of surviving mice to tumor re-challenge", "setting": "[4]; [7]", "value": "resistant to re-challenge with twice the dose of live tumor cells"},
      {"measurement": "toxicity", "setting": "[4]; [7]", "value": "without signs of acute or delayed toxicity"}
    ]},
    {"smiles": "CC(/C=C/[C@@H]1C[C@]1(C)c1ccc2c(c1)C(C)(C)CCC2(C)C)=C\\C(=O)O", "note": "[IRX4204]", "values": [
      {"measurement": "formation of FoxP3+ Treg cells", "setting": "[5]", "value": "promotes the formation of FoxP3+ Treg cells"},
      {"measurement": "formation of Th 17 cells", "setting": "[6]", "value": "inhibits the formation of Th 17 cells"}
    ]}
  ]
}
